Data as given in ChEMBL document CHEMBL1149620, “Synthesis and biological evaluation of cyclic and branched peptide analogues as ligands for cholecystokinin type 1 receptor” (Bioorg Med Chem, 2007).
Numbered stars: 1 amine (or outer) side, 2 acyl side, 3 side chain; on linkers, the order of the positions; unused ones are H or OH. Bridge positions count the residues as written; N and C are the ends. Square brackets hold non-standard residues; d marks the D form. Peptide text beside a SMILES is read from it. X4 = O=C([C@H](CCCCNCc1ccccc1)N[*:1])[*:2]; sY = N[C@@H](Cc1ccc(OS(=O)(=O)O)cc1)C(=O)O; X3 = O=C([C@H](CCNCc1ccccc1)N[*:1])[*:2]; X2 = O=C([C@H](CNCc1ccccc1)N[*:1])[*:2]; Dap = NC[C@H](N)C(=O)O; βAla = NCCC(=O)O

Target: T1, Cholecystokinin receptor type A (Homo sapiens, UniProt P32238)
T1 sequence (P32238 whole entry): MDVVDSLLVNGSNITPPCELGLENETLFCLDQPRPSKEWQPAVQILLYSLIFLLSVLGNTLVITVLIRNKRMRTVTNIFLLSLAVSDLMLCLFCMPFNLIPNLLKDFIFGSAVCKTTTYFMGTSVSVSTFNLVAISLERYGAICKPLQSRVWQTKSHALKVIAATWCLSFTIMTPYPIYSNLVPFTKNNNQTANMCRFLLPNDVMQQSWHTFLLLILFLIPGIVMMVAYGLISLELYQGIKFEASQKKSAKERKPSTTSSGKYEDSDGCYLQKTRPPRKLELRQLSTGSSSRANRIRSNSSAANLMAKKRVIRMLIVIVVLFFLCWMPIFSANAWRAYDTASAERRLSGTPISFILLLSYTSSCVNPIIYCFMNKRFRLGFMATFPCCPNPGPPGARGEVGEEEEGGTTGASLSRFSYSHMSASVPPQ
Assay: Displacement of [111In]DTPA-Glu-Gly-[Tyr27(SO3H)]-CCK8 from human CCK1 receptor expressed in A431 cells
Type: cell-based, A-431

Row | SMILES | IC50 (a-431) | IC50
1 | CSCC[C@H](NC(=O)[C@H](Cc1ccc(O)cc1)NC(=O)[C@H](CC(=O)O)NC(=O)CNC(=O)CC[C@@H](C(=O)O)N(CCN(CC(=O)O)CC(=O)O)CCN(CC(=O)O)CC(=O)O)C(=O)NCC(=O)N[C@@H](Cc1c[nH]c2ccccc12)C(=O)N[C@@H](CCSC)C(=O)N[C@@H](CC(=O)O)C(=O)N[C@@H](Cc1ccccc1)C(N)=O | 0.032 µM | –
2 | CSCC[C@@H]1NC(=O)[C@H](Cc2c[nH]c3ccccc23)NC(=O)[C@@H](NC(=O)[C@H](CCSC)NC(=O)[C@H](Cc2ccc(OS(=O)(=O)O)cc2)NC(=O)[C@@H](N)CC(=O)O)CNC(=O)CNC(=O)[C@H](C)NC(=O)[C@H](CC(=O)O)NC1=O (H-D[sY]M[Dap]WMDAG; lactam 4-C) | – | 7.2 µM
3 | CSCC[C@@H]1NC(=O)[C@H](Cc2c[nH]c3ccccc23)NC(=O)[C@@H](NC(=O)[C@H](CCSC)NC(=O)[C@H](Cc2ccc(OS(=O)(=O)O)cc2)NC(=O)[C@@H](N)CC(=O)O)CNC(=O)[C@H](C)NC(=O)[C@H](Cc2ccccc2)NC(=O)[C@H](CC(=O)O)NC1=O (H-D[sY]M[Dap]WMDFA; lactam 4-C) | – | > 1000 µM
4 | CSCC[C@@H]1NC(=O)[C@H](Cc2c[nH]c3ccccc23)NC(=O)[C@@H](NC(=O)[C@H](CCSC)NC(=O)[C@H](Cc2ccc(OS(=O)(=O)O)cc2)NC(=O)[C@@H](N)CC(=O)O)CNC(=O)CNC(=O)[C@H](Cc2ccccc2)NC(=O)[C@H](CC(=O)O)NC1=O (H-D[sY]M[Dap]WMDFG; lactam 4-C) | – | 26.3 µM
5 | CSCC[C@@H]1NC(=O)[C@H](Cc2c[nH]c3ccccc23)NC(=O)[C@@H](NC(=O)[C@H](CCSC)NC(=O)[C@H](Cc2ccc(OS(=O)(=O)O)cc2)NC(=O)[C@@H](N)CC(=O)O)CNC(=O)[C@H](CCCCN)NC(=O)[C@H](Cc2ccccc2)NC(=O)[C@H](CC(=O)O)NC1=O (H-D[sY]M[Dap]WMDFK; lactam 4-C) | – | 15 µM
6 | CSCC[C@@H]1NC(=O)[C@H](Cc2c[nH]c3ccccc23)NC(=O)[C@@H](NC(=O)[C@H](CCSC)NC(=O)[C@H](Cc2ccc(OS(=O)(=O)O)cc2)NC(=O)[C@@H](N)CC(=O)O)CNC(=O)CCNC(=O)[C@H](Cc2ccccc2)NC(=O)[C@H](CC(=O)O)NC1=O (H-D[sY]M[Dap]WMDF[βAla]; lactam 4-C) | – | 26.7 µM
7 | CSCC[C@@H]1NC(=O)[C@H](Cc2c[nH]c3ccccc23)NC(=O)[C@@H](NC(=O)[C@H](CCSC)NC(=O)[C@H](Cc2ccc(OS(=O)(=O)O)cc2)NC(=O)[C@@H](N)CC(=O)O)CNC(=O)CNC(=O)[C@H](CNCc2ccccc2)NC(=O)[C@H](CC(=O)O)NC1=O (H-D[sY]M[Dap]WMD[X2]G; lactam 4-C) | – | 7.46 µM
8 | CSCC[C@@H]1NC(=O)[C@H](Cc2c[nH]c3ccccc23)NC(=O)[C@@H](NC(=O)[C@H](CCSC)NC(=O)[C@H](Cc2ccc(OS(=O)(=O)O)cc2)NC(=O)[C@@H](N)CC(=O)O)CNC(=O)CNC(=O)[C@H](CCNCc2ccccc2)NC(=O)[C@H](CC(=O)O)NC1=O (H-D[sY]M[Dap]WMD[X3]G; lactam 4-C) | – | 6.94 µM
9 | CSCC[C@@H]1NC(=O)[C@H](Cc2c[nH]c3ccccc23)NC(=O)[C@@H](NC(=O)[C@H](CCSC)NC(=O)[C@H](Cc2ccc(OS(=O)(=O)O)cc2)NC(=O)[C@@H](N)CC(=O)O)CNC(=O)CNC(=O)[C@H](CCCCNCc2ccccc2)NC(=O)[C@H](CC(=O)O)NC1=O (H-D[sY]M[Dap]WMD[X4]G; lactam 4-C) | – | 24.7 µM
